Columns and labels:
[1] = tested on: Tyrosine-protein kinase ABL1 (Homo sapiens), P00519 [F317I]; conditions: Compound concentration 1000.0 nM
[2] = target: Dual specificity mitogen-activated protein kinase kinase 3 (Homo sapiens) (UniProt P46734); conditions: Compound concentration 1000.0 nM
[3] = target: Serine/threonine-protein kinase Sgk2 (Homo sapiens) (UniProt Q9HBY8); conditions: Compound concentration 1000.0 nM
[4] = target: Casein kinase II subunit alpha' (Homo sapiens) (UniProt P19784); conditions: Compound concentration 1000.0 nM
[5] = target: Mitogen-activated protein kinase 7 (Homo sapiens) (UniProt Q13164); conditions: Compound concentration 1000.0 nM
[6] = target: Cyclin-dependent kinase 4 (Homo sapiens) (UniProt P11802); conditions: Compound concentration 1000.0 nM
[7] = target: Serine/threonine-protein kinase PAK 1 (Homo sapiens) (UniProt Q13153); conditions: Compound concentration 1000.0 nM
[8] = target: Tyrosine-protein kinase CSK (Homo sapiens) (UniProt P41240); conditions: Compound concentration 1000.0 nM
[9] = tested on: Phosphatidylinositol 4,5-bisphosphate 3-kinase catalytic subunit alpha isoform (Homo sapiens), P42336 [E542K]; conditions: Compound concentration 1000.0 nM
Chain of Phosphatidylinositol 4,5-bisphosphate 3-kinase catalytic subunit alpha isoform (Homo sapiens), P42336 [E542K] (P42336 whole entry E542K, canonical isoform): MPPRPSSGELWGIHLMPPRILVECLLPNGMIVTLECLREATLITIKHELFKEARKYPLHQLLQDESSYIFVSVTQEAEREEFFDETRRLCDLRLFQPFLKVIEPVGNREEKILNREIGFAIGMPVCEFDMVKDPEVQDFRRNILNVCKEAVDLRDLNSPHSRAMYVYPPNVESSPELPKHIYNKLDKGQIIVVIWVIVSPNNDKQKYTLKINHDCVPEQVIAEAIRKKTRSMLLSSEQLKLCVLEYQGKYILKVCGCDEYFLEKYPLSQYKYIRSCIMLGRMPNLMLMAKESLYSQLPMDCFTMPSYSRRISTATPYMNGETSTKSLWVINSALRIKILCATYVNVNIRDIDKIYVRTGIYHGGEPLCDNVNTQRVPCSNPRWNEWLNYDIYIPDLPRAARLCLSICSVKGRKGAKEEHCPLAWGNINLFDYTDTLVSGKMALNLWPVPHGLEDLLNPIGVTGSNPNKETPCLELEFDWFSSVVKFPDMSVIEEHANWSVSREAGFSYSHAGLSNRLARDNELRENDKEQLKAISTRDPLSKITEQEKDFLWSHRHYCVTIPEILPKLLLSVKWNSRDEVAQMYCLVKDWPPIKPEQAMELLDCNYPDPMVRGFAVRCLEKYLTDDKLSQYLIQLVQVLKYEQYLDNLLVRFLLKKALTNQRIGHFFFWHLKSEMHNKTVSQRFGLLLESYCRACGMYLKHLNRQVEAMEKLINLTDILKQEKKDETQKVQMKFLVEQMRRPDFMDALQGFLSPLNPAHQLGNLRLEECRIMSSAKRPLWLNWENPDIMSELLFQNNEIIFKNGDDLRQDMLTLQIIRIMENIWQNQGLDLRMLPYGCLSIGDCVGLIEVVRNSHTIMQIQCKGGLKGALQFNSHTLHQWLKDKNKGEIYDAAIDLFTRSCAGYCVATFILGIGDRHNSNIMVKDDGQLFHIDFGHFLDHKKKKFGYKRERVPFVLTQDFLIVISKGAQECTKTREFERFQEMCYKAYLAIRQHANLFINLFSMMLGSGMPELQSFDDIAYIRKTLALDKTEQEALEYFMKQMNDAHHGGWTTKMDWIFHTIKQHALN

[10] = target: Beta-2 adrenergic receptor (Homo sapiens) (UniProt P07550); conditions: Compound concentration 10.0 uM
[11] = target: Fibroblast growth factor receptor 1 (Homo sapiens) (UniProt P11362); conditions: Compound concentration 1000.0 nM
[12] = target: Serine/threonine-protein kinase tousled-like 2 (Homo sapiens) (UniProt Q86UE8); conditions: Compound concentration 1000.0 nM
[13] = tested on: Receptor-type tyrosine-protein kinase FLT3 (Homo sapiens), P36888 [UNDEFINED MUTATION]; conditions: Compound concentration 1000.0 nM
[14] = target: Serine/threonine-protein kinase PAK 5 (Homo sapiens) (UniProt Q9P286); conditions: Compound concentration 1000.0 nM
[15] = target: Ribosomal protein S6 kinase alpha-2 (Homo sapiens) (UniProt Q15349); conditions: Compound concentration 1000.0 nM
[16] = target: Sigma non-opioid intracellular receptor 1 (Homo sapiens) (UniProt Q99720); conditions: Compound concentration 10.0 uM
Chain of Sigma non-opioid intracellular receptor 1 (Homo sapiens) (Q99720 whole entry): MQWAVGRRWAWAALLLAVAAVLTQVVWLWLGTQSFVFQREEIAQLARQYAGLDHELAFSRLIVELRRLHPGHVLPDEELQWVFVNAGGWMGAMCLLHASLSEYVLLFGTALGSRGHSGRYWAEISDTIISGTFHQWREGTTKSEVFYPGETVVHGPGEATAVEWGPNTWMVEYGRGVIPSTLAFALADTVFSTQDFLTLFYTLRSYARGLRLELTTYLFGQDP

[17] = target: Serine/threonine-protein kinase NIM1 (Homo sapiens) (UniProt Q8IY84); conditions: Compound concentration 1000.0 nM
Chain of Serine/threonine-protein kinase NIM1 (Homo sapiens) (Q8IY84 whole entry): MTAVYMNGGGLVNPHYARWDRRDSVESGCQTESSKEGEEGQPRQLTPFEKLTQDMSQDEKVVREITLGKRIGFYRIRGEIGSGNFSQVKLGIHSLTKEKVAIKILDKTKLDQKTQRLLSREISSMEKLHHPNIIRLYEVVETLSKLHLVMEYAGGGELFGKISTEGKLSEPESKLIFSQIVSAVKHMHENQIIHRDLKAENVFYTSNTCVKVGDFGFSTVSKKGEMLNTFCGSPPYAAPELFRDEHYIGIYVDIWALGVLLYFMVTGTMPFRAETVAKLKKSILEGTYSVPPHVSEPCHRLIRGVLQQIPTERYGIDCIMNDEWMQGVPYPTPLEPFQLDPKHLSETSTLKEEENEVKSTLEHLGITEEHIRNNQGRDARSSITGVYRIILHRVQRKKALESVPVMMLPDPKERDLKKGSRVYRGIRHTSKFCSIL

[18] = target: Receptor-type tyrosine-protein kinase FLT3 (Homo sapiens) (UniProt P36888); conditions: Compound concentration 1000.0 nM
[19] = target: Serine/threonine-protein kinase Nek7 (Homo sapiens) (UniProt Q8TDX7); conditions: Compound concentration 1000.0 nM
[20] = target: Serine/threonine-protein kinase MARK1 (Homo sapiens) (UniProt Q9P0L2); conditions: Compound concentration 1000.0 nM
[21] = tested on: Epidermal growth factor receptor (Homo sapiens), P00533 [L858R,T790M]; conditions: Compound concentration 1000.0 nM
[22] = target: Mitogen-activated protein kinase kinase kinase 10 (Homo sapiens) (UniProt Q02779); conditions: Compound concentration 1000.0 nM
[23] = tested on: Tyrosine-protein kinase ABL1 (Homo sapiens), P00519 [Q252H]; conditions: Compound concentration 1000.0 nM
[24] = target: Mitogen-activated protein kinase kinase kinase 15 (Homo sapiens) (UniProt Q6ZN16); conditions: Compound concentration 1000.0 nM
Chain of Mitogen-activated protein kinase kinase kinase 15 (Homo sapiens) (Q6ZN16 whole entry): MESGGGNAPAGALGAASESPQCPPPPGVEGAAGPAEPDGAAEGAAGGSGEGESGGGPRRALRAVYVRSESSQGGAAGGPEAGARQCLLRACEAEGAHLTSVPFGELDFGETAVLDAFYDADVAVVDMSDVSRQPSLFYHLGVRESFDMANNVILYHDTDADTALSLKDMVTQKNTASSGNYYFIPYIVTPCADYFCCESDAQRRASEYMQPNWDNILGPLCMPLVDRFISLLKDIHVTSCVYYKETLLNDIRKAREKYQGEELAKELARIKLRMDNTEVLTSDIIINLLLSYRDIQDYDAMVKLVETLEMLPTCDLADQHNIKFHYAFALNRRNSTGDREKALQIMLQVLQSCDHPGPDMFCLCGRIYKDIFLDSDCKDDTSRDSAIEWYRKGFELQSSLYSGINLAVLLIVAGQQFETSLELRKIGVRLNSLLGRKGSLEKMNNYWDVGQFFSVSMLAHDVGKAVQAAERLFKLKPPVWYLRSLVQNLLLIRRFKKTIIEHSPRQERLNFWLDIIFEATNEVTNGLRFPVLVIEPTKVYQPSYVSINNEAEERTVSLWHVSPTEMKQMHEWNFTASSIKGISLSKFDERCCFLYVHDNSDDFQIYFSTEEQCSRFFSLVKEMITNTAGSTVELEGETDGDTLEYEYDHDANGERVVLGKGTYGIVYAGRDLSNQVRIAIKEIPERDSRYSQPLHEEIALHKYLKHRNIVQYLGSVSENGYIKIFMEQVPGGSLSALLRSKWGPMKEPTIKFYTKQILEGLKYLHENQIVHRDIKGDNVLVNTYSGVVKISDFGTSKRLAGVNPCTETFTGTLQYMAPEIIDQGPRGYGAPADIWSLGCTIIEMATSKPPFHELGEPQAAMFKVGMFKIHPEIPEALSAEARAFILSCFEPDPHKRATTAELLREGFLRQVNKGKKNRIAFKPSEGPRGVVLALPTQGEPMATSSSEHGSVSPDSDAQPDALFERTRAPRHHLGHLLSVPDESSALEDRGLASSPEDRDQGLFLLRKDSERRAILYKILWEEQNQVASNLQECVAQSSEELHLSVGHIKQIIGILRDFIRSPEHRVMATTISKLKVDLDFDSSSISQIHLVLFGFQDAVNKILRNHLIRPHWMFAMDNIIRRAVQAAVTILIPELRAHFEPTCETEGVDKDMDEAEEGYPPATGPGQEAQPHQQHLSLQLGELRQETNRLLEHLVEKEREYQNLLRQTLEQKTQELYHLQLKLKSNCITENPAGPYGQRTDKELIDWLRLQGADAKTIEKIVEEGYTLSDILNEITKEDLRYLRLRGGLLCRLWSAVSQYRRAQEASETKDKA

[25] = target: Muscarinic acetylcholine receptor M3 (Homo sapiens) (UniProt P20309); conditions: Compound concentration 10.0 uM
[26] = target: Serine/threonine-protein kinase Nek11 (Homo sapiens) (UniProt Q8NG66); conditions: Compound concentration 1000.0 nM
[27] = target: Mitogen-activated protein kinase 8 (Homo sapiens) (UniProt P45983); conditions: Compound concentration 1000.0 nM
[28] = target: Myosin-IIIb (Homo sapiens) (UniProt Q8WXR4); conditions: Compound concentration 1000.0 nM
[29] = target: Tyrosine-protein kinase HCK (Homo sapiens) (UniProt P08631); conditions: Compound concentration 1000.0 nM
[30] = target: Proto-oncogene tyrosine-protein kinase Src (Homo sapiens) (UniProt P12931); conditions: Compound concentration 1000.0 nM
[31] = target: Serine/threonine-protein kinase PLK1 (Homo sapiens) (UniProt P53350); conditions: Compound concentration 1000.0 nM
[32] = target: Delta-type opioid receptor (Homo sapiens) (UniProt P41143); conditions: Compound concentration 10.0 uM
[33] = target: BMP-2-inducible protein kinase (Homo sapiens) (UniProt Q9NSY1); conditions: Compound concentration 1000.0 nM
[34] = target: Cytoplasmic tyrosine-protein kinase BMX (Homo sapiens) (UniProt P51813); conditions: Compound concentration 1000.0 nM
[35] = target: Dual specificity protein kinase CLK4 (Homo sapiens) (UniProt Q9HAZ1); conditions: Compound concentration 1000.0 nM
Chain of Dual specificity protein kinase CLK4 (Homo sapiens) (Q9HAZ1 whole entry, looked up): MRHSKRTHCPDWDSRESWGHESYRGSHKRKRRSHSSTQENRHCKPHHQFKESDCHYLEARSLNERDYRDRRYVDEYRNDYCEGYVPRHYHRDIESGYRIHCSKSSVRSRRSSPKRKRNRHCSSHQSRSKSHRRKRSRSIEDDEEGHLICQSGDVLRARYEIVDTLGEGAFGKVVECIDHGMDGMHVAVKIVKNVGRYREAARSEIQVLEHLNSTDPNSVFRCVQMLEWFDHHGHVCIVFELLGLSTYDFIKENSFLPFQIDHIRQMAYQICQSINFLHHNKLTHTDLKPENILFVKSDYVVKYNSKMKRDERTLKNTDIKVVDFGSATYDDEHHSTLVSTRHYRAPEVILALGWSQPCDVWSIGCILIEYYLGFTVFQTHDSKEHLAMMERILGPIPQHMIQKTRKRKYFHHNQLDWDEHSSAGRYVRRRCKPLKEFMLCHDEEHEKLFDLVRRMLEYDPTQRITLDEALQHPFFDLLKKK

[36] = target: Mitogen-activated protein kinase kinase kinase 14 (Homo sapiens) (UniProt Q99558); conditions: Compound concentration 1000.0 nM
[37] = target: Mitogen-activated protein kinase kinase kinase 4 (Homo sapiens) (UniProt Q9Y6R4); conditions: Compound concentration 1000.0 nM
[38] = target: Ribosomal protein S6 kinase alpha-5 (Homo sapiens) (UniProt O75582); conditions: Compound concentration 1000.0 nM
[39] = target: 5-hydroxytryptamine receptor 1B (Homo sapiens) (UniProt P28222); conditions: Compound concentration 10.0 uM
[40] = target: Serine/threonine-protein kinase pim-3 (Homo sapiens) (UniProt Q86V86); conditions: Compound concentration 1000.0 nM
[41] = target: Inhibitor of nuclear factor kappa-B kinase subunit epsilon (Homo sapiens) (UniProt Q14164); conditions: Compound concentration 1000.0 nM
[42] = tested on: Phosphatidylinositol 4,5-bisphosphate 3-kinase catalytic subunit alpha isoform (Homo sapiens), P42336 [M1043I]; conditions: Compound concentration 1000.0 nM
Chain of Phosphatidylinositol 4,5-bisphosphate 3-kinase catalytic subunit alpha isoform (Homo sapiens), P42336 [M1043I] (P42336 whole entry M1043I, canonical isoform): as the sequence (P42336 whole entry E542K, canonical isoform) above, with K542E, M1043I counted along it

[43] = target: Tyrosine-protein kinase Fgr (Homo sapiens) (UniProt P09769); conditions: Compound concentration 1000.0 nM
[44] = target: Serine/threonine-protein kinase ULK3 (Homo sapiens) (UniProt Q6PHR2); conditions: Compound concentration 1000.0 nM
Chain of Serine/threonine-protein kinase ULK3 (Homo sapiens) (Q6PHR2 whole entry): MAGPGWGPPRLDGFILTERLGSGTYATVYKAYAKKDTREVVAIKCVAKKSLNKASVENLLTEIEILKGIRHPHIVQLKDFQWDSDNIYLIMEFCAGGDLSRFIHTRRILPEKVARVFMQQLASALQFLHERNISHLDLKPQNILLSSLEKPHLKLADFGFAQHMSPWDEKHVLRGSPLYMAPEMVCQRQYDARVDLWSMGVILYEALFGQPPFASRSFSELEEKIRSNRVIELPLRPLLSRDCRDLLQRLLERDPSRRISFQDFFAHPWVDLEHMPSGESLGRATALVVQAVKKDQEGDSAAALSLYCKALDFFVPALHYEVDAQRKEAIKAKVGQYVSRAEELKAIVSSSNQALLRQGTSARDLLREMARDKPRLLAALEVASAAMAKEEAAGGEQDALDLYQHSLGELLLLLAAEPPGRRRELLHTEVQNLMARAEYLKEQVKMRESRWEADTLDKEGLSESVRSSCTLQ

[45] = target: Dual serine/threonine and tyrosine protein kinase (Homo sapiens) (UniProt Q6XUX3); conditions: Compound concentration 1000.0 nM

O=C(O)[C@@H]1[C@@H](Cn2nnc3ccccc3c2=O)CC[C@H]1C(=O)c1ccc(OCCC2CCOCC2)cc1 [BAY-694]
inactive: residual activity [1] 100% | residual activity [2] 92% | residual activity [3] 79% | residual activity [4] 88% | residual activity [5] 100% | residual activity [6] 86% | residual activity [7] 95% | residual activity [8] 90% | residual activity [9] 62% | inhibition [10] 24.4% | residual activity [11] 100% | residual activity [12] 93% | residual activity [13] 100% | residual activity [14] 96% | residual activity [15] 96% | inhibition [16] 29.3% | residual activity [17] 73% | residual activity [18] 86% | residual activity [19] 100% | residual activity [20] 100% | residual activity [21] 76% | residual activity [22] 100% | residual activity [23] 92% | residual activity [24] 54% | inhibition [25] 5.09% | residual activity [26] 100% | residual activity [27] 100% | residual activity [28] 90% | residual activity [29] 100% | residual activity [30] 89% | residual activity [31] 80% | inhibition [32] 15.9% | residual activity [33] 100% | residual activity [34] 100% | residual activity [35] 100% | residual activity [36] 100% | residual activity [37] 91% | residual activity [38] 100% | inhibition [39] 8.05% | residual activity [40] 84% | residual activity [41] 100% | residual activity [42] 100% | residual activity [43] 100% | residual activity [44] 100% | residual activity [45] 84%

O=C(O)[C@H]1[C@H](Cn2nnc3ccccc3c2=O)CC[C@@H]1C(=O)c1ccc(OCCC2CCOCC2)cc1 [BAY-7598]
inactive: residual activity [1] 100% | residual activity [2] 90% | residual activity [3] 92% | residual activity [4] 79% | residual activity [5] 100% | residual activity [6] 96% | residual activity [7] 83% | residual activity [8] 100% | residual activity [9] 71% | inhibition [10] 8.44% | residual activity [11] 98% | residual activity [12] 98% | residual activity [13] 87% | residual activity [14] 98% | residual activity [15] 90% | inhibition [16] 6.09% | residual activity [17] 93% | residual activity [18] 96% | residual activity [19] 100% | residual activity [20] 99% | residual activity [21] 64% | residual activity [22] 82% | residual activity [23] 83% | residual activity [24] 64% | inhibition [25] -7.32% | residual activity [26] 100% | residual activity [27] 72% | residual activity [28] 69% | residual activity [29] 70% | residual activity [30] 89% | residual activity [31] 75% | inhibition [32] 1.43% | residual activity [33] 86% | residual activity [34] 92% | residual activity [35] 100% | residual activity [36] 85% | residual activity [37] 100% | residual activity [38] 100% | inhibition [39] 11.5% | residual activity [40] 86% | residual activity [41] 90% | residual activity [42] 100% | residual activity [43] 86% | residual activity [44] 85% | residual activity [45] 100%

From ChEMBL document CHEMBL4507264, “Data for DCP probe BAY-7598” (2021)
